# Reference: patent US8674059B2, “Colon cancer related gene TOM34” (Oncotherapy Science, Inc., priority 2005, dated 2014)
# Where no end group is shown, it is not given here.
# Tests used:
# Assay type in all cases: cell-based, human
# HT29 cells = assay: Cold target inhibition assay; conditions: E/T ratio 20; TISI with or without loaded peptide
# Description: FIG. 9 depict HLA specificity of the CTL clones raised by TOM34-299. The CTL clone raised by TOM34-299 specifically recognizes TOM34 in the HLA-A24 restricted manner. • The cold target inhibition assay was performed as described in “Materials and Methods”. HT29 cells labeled by Na2^51CrO4 were prepared as hot target, while TISI cells with or without loaded TOM34-299 peptide were used without ^51Cr labeling as cold targets. E/T ratio was fixed at 20.
# (§1) Target cells were labeled with 100 μCi of Na2^51CrO4 (Perkin Elmer Life Sciences) for 1 hr at 37° C. in a CO2 incubator. Peptide-loaded target cells were prepared by incubating the cells with 20 μg/ml of the peptide for 16 hrs at 37° C. before labeling. Labeled target cells were rinsed and mixed with effector cells in a final volume of 0.2 ml in round-bottom microtiter plates. The plates were centrifuged (4 minutes at 800×g) to increase cell-to-cell contact and placed in a CO2 incubator at 37° C. After 4 hrs of incubation, 0.1 ml of the supernatant was collected from each well and the radioactivity was determined with a gamma counter. In case of evaluating cytotoxicity for target cells that endogenously express TOM34, the cytolytic activity was tested in the presence of 30-fold excess of unlabeled K562 cells to eliminate any non-specific lysis due to NK-like effectors. […]
# SNU-C2A = assay: 51Cr-release cytotoxicity of CTL clones against SNU-C2A cells (TOM34 positive, HLA-A24 negative); conditions: expresses TOM34 but not HLA-A24
# Description: as §1
# (§2) The percentage of specific cytotoxicity was determined by calculating the percentage of specific ^51Cr-release by the following formula: {(cpm of the test sample release−cpm of the spontaneous release)/(cpm of the maximum release−cpm of the spontaneous release)}×100. Spontaneous release was determined by incubating the target cells alone, in the absence of effector cells, and the maximum release was obtained by incubating the targets with 1N HCl. […]
# DLD-1 = assay: 51Cr-release cytotoxicity of CTL clones against DLD-1 cells endogenously expressing TOM34; conditions: DLD-1, expresses TOM34 and HLA-A24
# Description: as §1, §2
# HT29 = assay: 51Cr-release cytotoxicity of CTL clones against HT29 cells endogenously expressing TOM34; conditions: HT29, expresses TOM34 and HLA-A24
# Description: as §1, §2
# TISI cells (HLA-A24/24) = assay: In vitro CTL induction and 51Cr-release cytotoxicity assay against peptide-loaded TISI cells
# Description: Monocyte-derived dendritic cells (DCs) were used as antigen-presenting cells (APCs) to induce CTLs against peptides presented on HLA. DCs were generated in vitro as described elsewhere (Nukaya I, et al., Int J Cancer. 1999; 80(1):92-7; Tsai V, et al., J Immunol. 1997; 158(4):1796-802). Briefly, peripheral blood mononuclear cells (PBMCs) were isolated from normal volunteers ((HLA-A24) by Ficoll-Paque (Pharmacia) solution and separated by adherence to a plastic tissue culture flask (Becton Dickinson) so as to enrich them for the monocyte fraction. The monocyte-enriched population was cultured in the presence of 1,000 U/ml of GM-CSF (provided by Kirin Brewery Company) and 1,000 U/ml of IL-4 (Genzyme) in AIM-V (Invitrogen) containing 2% heat-inactivated autologous serum (AS). After 7 days in the culture, the cytokine-generated DCs were loaded with 20 μg/ml of HLA-A24-binding peptides in the presence of 3 μg/ml of β2-microglobulin for 4 hrs at 20° C. in AIM-V. These peptide-loaded DCs were then irradiated (5,500 rad) and mixed at a 1:20 ratio with autologous CD8+ T cells, obtained by positive selection with Dynabeads M-450 CD8 (Dynal) and Detachabead (Dynal). This mixture was subdivided and aliquots were incubated in 48-well plates (Corning); each well contained 1.5×10^4 peptide-loaded DCs and 3×10^5 CD8+ T cells in 0.5 ml of AIM-V/2% AS containing 10 ng/ml of IL-7 (Genzyme). Three days later, these cultures were supplemented with IL-2 (CHIRON) to a final concentration of 20 IU/ml. On day 7 and 14, the T cells were further restimulated with the autologous peptide-loaded DCs. The DCs were prepared each time by the same way as described above. Cytotoxicity was tested against peptide-loaded TISI cells after the 3rd round of peptide stimulation on day 21. […]
# Target cells were labeled with 100 μCi of Na2^51CrO4 (Perkin Elmer Life Sciences) for 1 hr at 37° C. in a CO2 incubator. […] After 4 hrs of incubation, 0.1 ml of the supernatant was collected from each well and the radioactivity was determined with a gamma counter. […]
sequence,measurement,setting,value
KLRQEVKQNL [KLRQEVKQNL],cytotoxic activity of CTL clone against HT29 in presence of cold target TISI cells,HT29 cells,inhibited by the addition of TISI cells only when loaded with the peptide
same,cytotoxic activity of two CTL clones,SNU-C2A,neither of the two CTL clones showed any relevant cytotoxic activity
same,cytotoxic activity of two CTL clones,DLD-1,potent cytotoxic activity
same,cytotoxic activity of two CTL clones,HT29,potent cytotoxic activity
same,cytotoxic activity of CTL lines against the peptide-loaded target,"TISI cells (HLA-A24/24); CTL lines stimulated by the peptide, TISI loaded with peptide",potent cytotoxic activity
same,cytotoxic activity of CTL lines against targets not loaded with the peptide,TISI cells (HLA-A24/24); TISI without loaded peptide,without showing any significant cytotoxic activity
same,E/T ratio at which antigen-specific cytotoxicity of CTL lines is detectable,TISI cells (HLA-A24/24); as low as,1.2
